Values after ≈ are worked out from the molar mass of the structure shown. Read-outs that look alike come from different tables or passages of the source.
Experiments:
S. aureus ATCC 25923 = test: Antimicrobial susceptibility (MIC), S. aureus; format: cell-based, Staphylococcus aureus; settings: for MIC: Staphylococcus aureus, ATCC25923, S. aureus ATCC 25923, mean (n = 3)
Protocol: (§1) The susceptibility of bacterial strains S. aureus (ATCC 25923), E. coli (ATCC 25922) and P. aeruginosa (ATCC 27853) to antibiotics and compounds was determined according to previously reported protocols. Additional antimicrobial evaluation against MRSA (ATCC 43300) and C. albicans (ATCC 90028) was undertaken at the Community for Open Antimicrobial Drug Discovery at The University of Queensland (Australia) according to their standard protocols as reported previously.

P. aeruginosa ATCC 27853 [1] = test: Antibiotic potentiation (MIC of antibiotics in the presence of synergizing compounds), P. aeruginosa; format: cell-based, Pseudomonas aeruginosa; settings: concentration required to restore doxycycline activity at 2 µg/mL (4.5 µM) against P. aeruginosa ATCC 27853
E. coli ATCC 25922 = test: Antimicrobial susceptibility (MIC), E. coli; format: cell-based; settings: Escherichia coli, ATCC25922, mean (n = 3)
Protocol: as §1

MRSA ATCC 43300 = test: Antimicrobial susceptibility (MIC), MRSA; format: cell-based; settings: Staphylococcus aureus, read-out: MIC MRSA
Protocol: as §1

[2] = Cytotoxicity assay HEK293; format: cell-based, human; settings: human, HEK293 cells, mean (n = 2), read-out: Cyto. IC50 (concentration of compound at 50% cytotoxicity)
Protocol: Cytotoxicity assays were conducted according to previously reported protocols.

P. aeruginosa ATCC 27853 [3] = test: Antimicrobial susceptibility (MIC), P. aeruginosa; format: cell-based; settings: Pseudomonas aeruginosa
Protocol: as §1

C. albicans ATCC 90028 = test: Antifungal susceptibility (MIC), C. albicans; format: cell-based; settings: Candida albicans, ATCC90028, mean (n = 2)
Protocol: as §1

human red blood cells = test: Hemolytic assay; format: cell-based; settings: mean (n = 2)
Protocol: Hemolysis assays were conducted according to previously reported protocols.

[4] = ATCC27853, mean (n = 3), read-out: MIC P. a

MIC (S. aureus ATCC 25923) [µM] | MIC (E. coli ATCC 25922) [µM] | MIC (MRSA ATCC 43300; MRSA ATCC 43300, mean (n = 2)) [µM] | MIC (P. aeruginosa ATCC 27853 [3]; [4]) [µM] | MIC (C. albicans ATCC 90028) [µM] | MIC (P. aeruginosa ATCC 27853 [3]; ATCC27853, read-out: observed MIC of doxycycline) [µg/mL] | S. aureus and MRSA MIC (range over both strains) (S. aureus ATCC 25923; S. aureus ATCC 25923 and MRSA, summary range in text) [µM] | SMILES | Conc (µM) for Potentiation of doxycycline (P. aeruginosa ATCC 27853 [1]) [µM] | IC50 [2] [µM] | Hem. HC10 (concentration of compound at 10% hemolytic activity) (human red blood cells) [µM] | MIC (MRSA ATCC 43300) [µM]
3.12 | 12.5 | ≤ 0.28 | 800 | 9 | – | – | Cc1ccc2[nH]cc(C(=O)C(=O)NCCCNCCCCCCCCCCNCCCNC(=O)C(=O)c3c[nH]c4ccc(C)cc34)c2c1.O=C(O)C(F)(F)F.O=C(O)C(F)(F)F [Compound 20d, N^1,N^10-Bis(3-(2-(5-methyl-1H-indol-3-yl)-2-oxoacetamido)propyl)decane-1,10-diaminium 2,2,2-trifluoroacetate] | 400 | > 36 | – | –
27.2 | > 220 | 4.34 | > 220 | 35 | – | – | O=C(NCCCNCCCCCCCCCCCCNCCCNC(=O)C(=O)c1c[nH]c2c(F)cccc12)C(=O)c1c[nH]c2c(F)cccc12.O=C(O)C(F)(F)F.O=C(O)C(F)(F)F [Compound 21e, N^1,N^12-Bis(3-(2-(7-fluoro-1H-indol-3-yl)-2-oxoacetamido)propyl)dodecane-1,12-diaminium 2,2,2-trifluoroacetate] | >200 | 6.4 | >35 | –
25 | 25 | 39 | > 200 | > 39 | – | – | O=C(NCCCNCCCCCCCNCCCNC(=O)C(=O)c1c[nH]c2ccccc12)C(=O)c1c[nH]c2ccccc12.O=C(O)C(F)(F)F.O=C(O)C(F)(F)F [Compound 17b, N^1,N^7-Bis(3-(2-(1H-indol-3-yl)-2-oxoacetamido)propyl)heptane-1,7-diaminium 2,2,2-trifluoroacetate] | 100 | 31 | >39 | –
12.5 | 50 | ≤ 0.3 | 200 | > 39 | – | – | Cc1ccc2[nH]cc(C(=O)C(=O)NCCCNCCCCCCNCCCNC(=O)C(=O)c3c[nH]c4ccc(C)cc34)c2c1.O=C(O)C(F)(F)F.O=C(O)C(F)(F)F [Compound 20a, N^1,N^6-Bis(3-(2-(5-methyl-1H-indol-3-yl)-2-oxoacetamido)propyl)hexane-1,6-diaminium 2,2,2-trifluoroacetate] | 12.5 | > 39 | – | –
3.12 | 12.5 | – | 800 | 2.2 | – | – | Cc1ccc2[nH]cc(C(=O)C(=O)NCCCNCCCCCCCCCCCCNCCCNC(=O)C(=O)c3c[nH]c4ccc(C)cc34)c2c1.O=C(O)C(F)(F)F.O=C(O)C(F)(F)F [Compound 20e, N^1,N^12-Bis(3-(2-(5-methyl-1H-indol-3-yl)-2-oxoacetamido)propyl)dodecane-1,12-diaminium 2,2,2-trifluoroacetate] | 400 | – | 2.0 | –
3.12 | 12.5 | 4.7 | 800 | > 37 | – | – | Cc1ccc2[nH]cc(C(=O)C(=O)NCCCNCCCCCCCCNCCCNC(=O)C(=O)c3c[nH]c4ccc(C)cc34)c2c1.O=C(O)C(F)(F)F.O=C(O)C(F)(F)F [Compound 20c, N^1,N^8-Bis(3-(2-(5-methyl-1H-indol-3-yl)-2-oxoacetamido)propyl)octane-1,8-diaminium 2,2,2-trifluoroacetate] | 400 | > 37 | – | –
6.25 | 50 | ≤ 0.3 | 200 | > 38 | – | – | Cc1ccc2[nH]cc(C(=O)C(=O)NCCCNCCCCCCCNCCCNC(=O)C(=O)c3c[nH]c4ccc(C)cc34)c2c1.O=C(O)C(F)(F)F.O=C(O)C(F)(F)F [Compound 20b, N^1,N^7-Bis(3-(2-(5-methyl-1H-indol-3-yl)-2-oxoacetamido)propyl)heptane-1,7-diaminium 2,2,2-trifluoroacetate] | 12.5 | – | >38 | –
7.1 | 14.1 | ≤ 0.28 | > 230 | 18 | – | – | Cc1cccc2c(C(=O)C(=O)NCCCNCCCCCCCCCCNCCCNC(=O)C(=O)c3c[nH]c4c(C)cccc34)c[nH]c12.O=C(O)C(F)(F)F.O=C(O)C(F)(F)F [Compound 23d, N^1,N^10-Bis(3-(2-(7-methyl-1H-indol-3-yl)-2-oxoacetamido)propyl)decane-1,10-diaminium 2,2,2-trifluoroacetate] | 230 | > 36 | – | –

The next lines start with the compound.

SMILES | MIC (S. aureus ATCC 25923) [µM] | MIC (E. coli ATCC 25922) [µM] | MIC (MRSA ATCC 43300; MRSA ATCC 43300, mean (n = 2)) [µM] | MIC (P. aeruginosa ATCC 27853 [3]; [4]) [µM] | MIC (C. albicans ATCC 90028) [µM] | MIC (P. aeruginosa ATCC 27853 [3]; ATCC27853, read-out: observed MIC of doxycycline) [µg/mL] | S. aureus and MRSA MIC (range over both strains) (S. aureus ATCC 25923; S. aureus ATCC 25923 and MRSA, summary range in text) [µM] | Conc (µM) for Potentiation of doxycycline (P. aeruginosa ATCC 27853 [1]) [µM] | IC50 [2] [µM] | Hem. HC10 (concentration of compound at 10% hemolytic activity) (human red blood cells) [µM] | MIC (MRSA ATCC 43300) [µM]
O=C(N[C@H](CO)[C@H](O)c1ccc([N+](=O)[O-])cc1)C(Cl)Cl [chloramphenicol, reference compound] | 1.5 to 3 (≈ 0.485 to 0.969 µg/mL) | > 200 | – | > 200 | – | – | – | – | – | – | –
O=C(NCCCNCCCCCCCCCCCCNCCCNC(=O)C(=O)c1c[nH]c2ccccc12)C(=O)c1c[nH]c2ccccc12 [Compound 17e] | 25 (≈ 16.4 µg/mL) | > 200 | 9.04 (≈ 5.94 µg/mL) | > 200 | 36 (≈ 23.6 µg/mL) | – | – | 6.25 | 5.6 | >36 | –
CN(C)c1ccc(O)c2c1C[C@H]1C[C@H]3[C@H](N(C)C)C(O)=C(C(N)=O)C(=O)[C@@]3(O)C(O)=C1C2=O [minocycline, reference compound] | – | – | – | 70 | – | – | – | – | – | – | –
CC/C(=C(\c1ccccc1)c1ccc(OCCN(C)C)cc1)c1ccccc1 [tamoxifen, reference compound] | – | – | – | – | – | – | – | – | 24 | – | –
O=C(NCCCNCCCCCCNCCCNC(=O)C(=O)c1c[nH]c2ccccc12)C(=O)c1c[nH]c2ccccc12.O=C(O)C(F)(F)F.O=C(O)C(F)(F)F [Compound 17a, N^1,N^6-Bis(3-(2-(1H-indol-3-yl)-2-oxoacetamido)propyl)hexane-1,6-diaminium 2,2,2-trifluoroacetate] | 12.5 | 50 | > 40 | > 200 | > 40 | – | – | 12.5 | – | – | –
OC(Cn1cncn1)(Cn1cncn1)c1ccc(F)cc1F [fluconazole, reference compound] | – | – | – | – | 0.4 (≈ 0.123 µg/mL) | – | – | – | – | – | –
CC[C@H]1OC(=O)[C@H](C)[C@@H](O[C@H]2C[C@@](C)(OC)[C@@H](O)[C@H](C)O2)[C@H](C)[C@@H](O[C@@H]2O[C@H](C)C[C@H](N(C)C)[C@H]2O)[C@](C)(O)C[C@@H](C)C(=O)[C@H](C)[C@@H](O)[C@]1(C)O [erythromycin, reference compound] | – | > 200 | – | > 200 | – | – | – | – | – | – | –
C[C@H]1c2cccc(O)c2C(=O)C2=C(O)[C@]3(O)C(=O)C(C(N)=O)=C(O)[C@@H](N(C)C)[C@@H]3[C@@H](O)[C@@H]21 [doxycycline, reference compound] | – | 25 (≈ 11.1 µg/mL) | – | 50 | – | 20 | – | – | – | – | –
COc1cccc2c(C(=O)C(=O)NCCCNCCCCCCCCCCCCNCCCNC(=O)C(=O)c3c[nH]c4c(OC)cccc34)c[nH]c12 [Compound 22e] | 3.12 (≈ 2.24 µg/mL) | 12.5 (≈ 8.96 µg/mL) | ≤ 0.26 | 800 | ≤ 0.26 | – | 0.26 to 3.125 | 400 | – | 0.93 | –
CN[C@H](CC(C)C)C(=O)N[C@H]1C(=O)N[C@@H](CC(N)=O)C(=O)N[C@H]2C(=O)N[C@H]3C(=O)N[C@H](C(=O)N[C@H](C(=O)O)c4cc(O)cc(O)c4-c4cc3ccc4O)[C@H](O)c3ccc(c(Cl)c3)Oc3cc2cc(c3O[C@@H]2O[C@H](CO)[C@@H](O)[C@H](O)[C@H]2O[C@H]2C[C@](C)(N)[C@H](O)[C@H](C)O2)Oc2ccc(cc2Cl)[C@H]1O [vancomycin, reference compound] | – | – | – | – | – | – | – | – | – | – | 0.7 (≈ 1.01 µg/mL)
CCn1cc(C(=O)O)c(=O)c2ccc(C)nc21 [nalidixic acid, reference compound] | – | > 200 | – | > 200 | – | – | – | – | – | – | –
[H]/N=C(/N)N[C@H]1[C@H](O)[C@@H](O)[C@H](O[C@@H]2O[C@@H](C)[C@](O)(C=O)[C@H]2O[C@@H]2O[C@@H](CO)[C@H](O)[C@@H](O)[C@@H]2NC)[C@@H](N/C(N)=N\[H])[C@@H]1O [streptomycin, reference compound] | 21.5 (≈ 12.5 µg/mL) | 21.5 (≈ 12.5 µg/mL) | – | 21.5 | – | – | – | – | – | – | –
COc1cccc2c(C(=O)C(=O)NCCCNCCCCCCCCNCCCNC(=O)C(=O)c3c[nH]c4c(OC)cccc34)c[nH]c12 [Compound 22c] | 25 (≈ 16.5 µg/mL) | 200 (≈ 132 µg/mL) | 4.5 (≈ 2.97 µg/mL) | 800 | > 36 | – | – | 200 | – | >36 | –

From article PMC10302047, “Structure–Activity Relationship Studies of Indolglyoxyl-Polyamine Conjugates as Antimicrobials and Antibiotic Potentiators” (Pharmaceuticals, 2023)
